Test results: paper PMC8786932, “Bicyclic azetidines target acute and chronic stages of Toxoplasma gondii by inhibiting parasite phenylalanyl t-RNA synthetase” (Nature Communications, 2022)
Where “and” joins values, the source holds several entries; their conditions need not be identical. Equal values may be shown once. Read-outs that look alike come from different tables or passages of the source.

Legend:
[1] = tested on: T. gondii tachyzoites (type II ME49-FLuc); assay: Luciferase-based tachyzoite growth assay; assay type: cell-based, Toxoplasma gondii; design: EC50 log inhib vs normalized response: unit: µM; conditions: for EC50 log inhib vs normalized response: Fig 1A rank order, T. gondii growth
Procedure: All assays were carried out in a 96-well plate format containing confluent HFF monolayers to support parasite growth. To avoid edge effects, only the inner 60 wells of each plate were used. All compounds described were provided by the Broad Institute as 10 mM stocks in 100% DMSO and stored at −80 °C prior to use. Pyrimethamine (Sigma-Aldrich) was prepared as 5 mM stock in 100% DMSO and stored at −20 °C prior to use.
All statistical analyses were conducted using Prism 9 (GraphPad Software, Inc.). Dose–response inhibition curves for parasite and host cell toxicity screens (EC50 values) were generated using (Log(inhibitor) vs. normalized response—Variable slope) function. […] For multiple comparisons, two-way ANOVA analysis function using either Sidák’s multiple comparisons test or Dunnett’s multiple comparisons test was applied as indicated.

[2] = tested on: T. gondii ME49-FLuc chronic infection; assay type: in vivo, Ifngr1-/- mice; conditions: mouse, in vivo
Procedure: (§1) Ifngr1^−/− (B6.129S7-Ifngr1 ^tm1Agt /J) and CBA/J mice were purchased from Jackson Laboratory and bred locally at Washington University. Animal studies were conducted according to the U.S. Public Health Service policy on human care and use of laboratory animals. Animals were maintained in facilities approved by the Association for Assessment and Accreditation of Laboratory Animal Care. Studies were approved by Division of Comparative Medicine, Washington University. […] Animals were maintained on a 12:12 light cycle, room temperature maintained at 70℉ ± 2℉, and room humidity maintained at 50% ± 20%.
(§2) Testing of compounds to prevent reactivation of chronic infection was […] to test the efficacy of PheRS inhibitors against chronic infection. In both cases, male and female C57BL/6 Ifngr1^−/− mice were infected by oral gavage with 5 cysts of the ME49-Fluc strain isolated from chronically infected CBA/J mice. […] Animals were monitored for survival and weight loss for 30 days post-treatment.

[3] = tested on: T. gondii ME49-FLuc tissue cysts; assay type: in vivo, Ifngr1-/- mice; conditions: mouse, in vivo
Procedure: as §1, §2

[4] = tested on: blood-stage P. falciparum; conditions: Fig 2A Tg_Pf_Cp EC50s; previously reported values, reference not visible in the shown part; cited from earlier work
C. parvum = conditions: Fig 2A Tg_Pf_Cp EC50s; previously reported values, reference not visible in the shown part; cited from earlier work
[5] = target: N. caninum expressing lacZ; assay: Neospora caninum β-galactosidase assay; assay type: cell-based
Procedure: β-galactosidase assays were conducted using tissue culture grade 96-well plates (TPP) containing confluent monolayers of HFF cells. A 10-point compound dilution series (2-fold) for each compound was generated as described above (2X concentration, 0.1% final DMSO). Growth of the N. caninum strain expressing lacZ was monitoring using a β-galactosidase (β-gal) assay as described in[21] with the following modifications. N. caninum lacZ expressing parasites (1 × 10^3) were added (in 100 μL volume) into 96-well plates containing HFF monolayers to reach final compound concentration (5.0 μM to 0.002 μM in 200 μL total volume). Plates were incubated at 37 °C, 5% CO2 for 72 h prior to completing β-gal assay as previously described[23],[27],[51]. Briefly, parasite containing monolayers were lysed with 1.0% Triton X-100 and β-gal activity determined by adding 1 mM chlorophenolred-β-D-galactopyranoside followed by monitoring absorption at 570 nm on a Cytation 3 multi-mode imager (BioTek), as described.

[6] = tested on: ex vivo T. gondii ME49-FLuc bradyzoites from tissue cysts of chronically infected mice; assay: Ex vivo bradyzoite treatment assay (plaque assay); assay type: cell-based, Toxoplasma gondii; conditions: Fig 5H top 4, replicates, listed as Pyr
Procedure: The brains from CBA/J mice chronically infected with the ME49-FLuc strain were harvested, homogenized, and tissue cysts isolated on Percoll gradients, as described previously[9],[27]. Following isolation, purified tissue cysts were treated with acid-pepsin solution ([…] sodium chloride (NaCl), 60 mM hydrochloric acid (HCl) and freshly made pepsin (0.1 mg/mL in 1xPBS) for 10 min at 37 °C. Following acid-pepsin treatment and addition of neutralization buffer (94 mM sodium carbonate (Na2CO3), liberated bradyzoites were equally distributed into 6-well plates with 5 mL culture media containing compounds or vehicle control (0.1–0.2% DMSO final concentration). Plates were incubated undisturbed for 12–14 days followed by fixation in 100% ethanol (ETOH) for 5 min at RT, rinsing with tap water, staining in 0.1% crystal violet solution for 10 min at RT, rinsing in water and air drying. Plaques were quantified on a Zeiss AxioObserver microscope equipped with a ×2.5 objective (Department of Molecular Microbiology Imaging Facility at the Washington University School of Medicine).

[7] = Toxoplasma gondii, Fig. 2b, stereoisomers of BRD3444, mean of two biological replicates, read-out: Tg EC50
[8] = Toxoplasma gondii, Table S1, ME49-FLuc tachyzoites, read-out: T. gondii EC50
[9] = Fig 2A Tg_Pf_Cp EC50s, read-out: EC50 T. gondii
[10] = Table S1, ME49-FLuc tachyzoites, read-out: T. gondii EC50
[11] = Fig S2 source data, read-out: T. gondii (EC50, Fig S2 source data)
[12] = Fig S2 source data, read-out: N. caninum (EC50, Fig S2 source data)
[13] = Table S3, 72 h, lacZ, read-out: N. caninum EC50

Row | SMILES | EC50 log inhib vs normalized response [1] | EC50 [1, 8] [nM] | EC50 [1, 9] [nM] | EC50 [1, 10] [nM] | EC50 [4] [nM] | other results
1 | COc1ccc(NC(=O)N2CCCCN3[C@@H](CO)[C@H](c4ccc(C#Cc5ccccc5)cc4)[C@@H]3C2)cc1 [BRD9995] | 0.1187 | 118 | – | – | – | EC50 [1, 7]: 119 nM
2 | Nc1ccc(S(=O)(=O)Nc2ncccn2)cc1 [sulfadiazine, reference compound] | – | – | – | – | – | Days (survival time of single mouse) [2]: 7 days and 9 days and 29 days and 11 days and 5 days; Survival event flag of single mouse (1 or 0) [2]: 1 and 0; mean survival [3]: 10 days
3 | COc1ccc(NC(=O)N2CCCCN3[C@H](CN4CCN(C)CC4)[C@H](c4ccc(C#Cc5ccccc5)cc4)[C@@H]3C2)cc1 [BRD6479] | 0.4249 | – | 425 | 424 | 158 | –
4 | COc1ccc(NC(=O)N2CCCN3[C@H](CO)[C@H](c4ccc(C#Cc5ccccc5)cc4)[C@@H]3C2)cc1 [BRD9599] | 1.748 | – | 1750 | – | 850 | EC50 (C. parvum): 250 nM
5 | COc1ccc(NC(=O)N2CCCCN3[C@@H](CO)[C@H](c4ccc(C#Cc5ccccn5)cc4)[C@@H]3C2)cc1 [BRD9257] | 0.6463 | – | 646 | 646 | 155 | –
6 | COc1ccc(NC(=O)N2CCCCCN3[C@H](CO)[C@H](c4ccc(C#Cc5ccccc5)cc4)[C@@H]3C2)cc1 [BRD0185] | 0.1693 | – | – | 169 | 87 | EC50 [1, 11]: 169 nM; EC50 [5, 12]: 156 nM; EC50 [5, 13]: 156 nM; EC50 (C. parvum): 33 nM
7 | COc1ccc(NC(=O)N2CCCCN3[C@H](CO)[C@@H](c4ccc(C#Cc5ccccc5)cc4)[C@H]3C2)cc1 [BRD8194] | 2.955 | 2960 | – | – | – | –
8 | OC[C@@H]1[C@H](c2ccc(C#Cc3ccccc3)cc2)[C@@H]2CN(c3nc4ccccc4s3)CCCCN12 [BRD5349] | 3.944 | – | 3940 | – | 8320 | –
9 | COc1ccc(NC(=O)N2CCCCN3[C@H](CN4CCC4)[C@H](c4ccc(C#Cc5ccccc5)cc4)[C@@H]3C2)cc1 [BRD8493] | 0.4416 | – | 442 | 441 | 116 | –
10 | COc1ccc(NC(=O)N2CCCCN3[C@H](CO)[C@@H](c4ccc(C#Cc5ccccc5)cc4)[C@@H]3C2)cc1 [BRD2574] | 1.487 | 1490 | – | – | – | –
11 | COc1ccc(NC(=O)N2CCCCN3[C@H](CO)[C@H](c4ccc(C#Cc5ccccc5)cc4)[C@H]3C2)cc1 [BRD3182] | 1.697 | 1700 | – | – | – | –
12 | CCc1nc(N)nc(N)c1-c1ccc(Cl)cc1 [Pyrimethamine, reference compound] | 0.2476 | 247 | – | – | – | EC50 ([1]; Toxoplasma gondii, ME49-FLuc, 10-point dose-response, two biological replicates, read-out: EC50, T. gondii tachyzoite growth): 248 nM; Ex vivo bradyzoite plaques, normalised to DMSO = 100 ([6]; Constant treatment): 2.0 and 0.5 and 1.9; Ex vivo bradyzoite plaques, normalised to DMSO = 100 ([6]; Washout): 115.2 and 93 and 95.5
13 | COc1ccc(NC(=O)N2CCCCN3C[C@H](c4ccc(C#Cc5ccccc5)cc4)[C@@H]3C2)cc1 [BRD3914] | 0.07697 | – | – | 76 | 13 | EC50 [1, 11]: 77 nM; EC50 [5, 12]: 193 nM; EC50 [5, 13]: 193 nM; EC50 (C. parvum): 62 nM
14 | COc1ccc(NC(=O)N2CCCCN3[C@H](CO)[C@H](c4ccc(C#Cc5ccccc5)cc4)[C@]3(CO)C2)cc1 [BRD2936] | 1.687 | – | 1690 | – | 1870 | EC50 (C. parvum): 1080 nM
15 | COc1ccc(NC(=O)N2CCCCN3[C@@H](CO)[C@@H](c4ccc(C#Cc5ccccc5)cc4)[C@@H]3C2)cc1 [BRD2430] | 1.548 | 1550 | – | – | – | –
16 | COc1ccc(NC(=O)N2CCCCN3[C@H](C2)[C@H](c2ccc(C#Cc4ccccc4)cc2)[C@@H]3CO)cc1 [BRD4569] | 3.376 | 3380 | – | – | – | EC50 [1, 7]: 3370 nM
17 | O=C(Nc1cccc(F)c1)N1CCCCN2[C@H](CO)[C@H](c3ccc(C#Cc4cccnc4)cc3)[C@@H]2C1 [BRD5999] | 0.4926 | – | – | 492 | – | –
18 | COc1ccc(NC(=O)N2CCCCN3[C@H](CO)[C@H](c4ccc(C#CC5CC5)cc4)[C@@H]3C2)cc1 [BRD5774] | 1.609 | – | 1610 | – | 12200 | –
19 | COc1ccc(NC(=O)N2CCCCN3[C@H](CO)[C@H](c4ccc(C#Cc5ccccc5C#N)cc4)[C@@H]3C2)cc1 [BRD4873] | 0.2134 | – | 213 | 213 | 261 | –
20 | COc1ccc(NC(=O)N2CCCCN3[C@H](C2)[C@@H](c2ccc(C#Cc4ccccc4)cc2)[C@@H]3CO)cc1 [BRD3801] | 4.096 | 4100 | – | – | – | –
21 | COc1ccc(NC(=O)N2C[C@@H](O)[C@@H](O)CN3[C@H](CN(C)C)[C@H](c4ccc(C#Cc5ccccc5)cc4)[C@@H]3C2)cc1 [BRD5018] | 0.03927 | – | – | 39 | 13 | EC50 [1, 11]: 39.3 nM; EC50 [5, 12]: 29.9 nM; EC50 [5, 13]: 29 nM
22 | O=C(NC1CCC1)N1CCCCN2[C@H](CO)[C@H](c3ccc(C#Cc4ccccc4)cc3)[C@@H]2C1 [BRD8260] | 2.575 | – | 2580 | – | 19500 | –
